Laboratory results from ChEMBL document CHEMBL1136704, “3-amino-4-sulfonylpyridinone acetamide and related pyridothiadiazine thrombin inhibitors” (Bioorg Med Chem Lett, 2003).

Legend:
[1] = target: Serine protease 1 (Homo sapiens, UniProt P07477); assay: Inhibitory activity against human trypsin
[2] = species on record: Homo sapiens; assay: Anticoagulant potency, activated partial thromboplastin time assay; format: functional
[3] = species on record: Rattus norvegicus; assay: Final plasma concentration in the rat ferric chloride thrombosis model; details: in vivo
[4] = target: Prothrombin (Homo sapiens, UniProt P00734); assay: Inhibition of human thrombin
[5] = Protein binding activity of compound in human plasma; % Free; format: ADME, cell-free
[6] = Cmax value in dogs after oral administration at 1 mg/kg; format: ADME, organism-based, Canis lupus familiaris; parameters: dose 1 mg/kg, route oral; details: dog, in vivo
[7] = Half life period in dogs after oral administration at 1 mg/kg; format: ADME, organism-based, Canis lupus familiaris; parameters: dose 1 mg/kg, route oral; details: dog, in vivo
[8] = Pharmacokinetic property in dogs after oral administration at 1 mg/kg; format: ADME, organism-based, Canis lupus familiaris; parameters: dose 1 mg/kg, route oral; details: dog, in vivo
[9] = Pharmacokinetic property (Area under curve); format: ADME
[10] = Cmax value in dog; format: ADME, organism-based, Canis lupus familiaris; details: in vivo
[11] = Half life period was determined; details: dog

Serine protease 1, sequence (P07477 whole entry): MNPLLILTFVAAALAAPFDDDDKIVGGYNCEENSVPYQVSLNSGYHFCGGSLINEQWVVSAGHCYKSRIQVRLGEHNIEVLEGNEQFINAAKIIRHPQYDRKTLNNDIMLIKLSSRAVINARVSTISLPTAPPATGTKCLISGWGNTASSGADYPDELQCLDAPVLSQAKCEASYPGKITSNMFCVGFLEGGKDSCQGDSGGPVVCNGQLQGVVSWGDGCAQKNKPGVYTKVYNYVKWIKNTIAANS

Structure (SMILES) | Ki [1] | Free [5] | Cmax [6] | half-life [7] | AUC [8] | Concentration [2] | concentration [3] | Ki [4] | AUC [9] | Cmax [10] | half-life [11]
Cc1nc(N)ccc1CNC(=O)Cn1c(C)cc(S(=O)(=O)CC2CCCC2)c(N)c1=O | 630 nM | 29% |  |  |  | 0.4 µM | 530 nM | 1.2 nM |  |  | 
Cc1nc(N)ccc1CNC(=O)Cn1c(C)cc(S(=O)(=O)Cc2ccccc2)c(N)c1=O | 1600 nM | 22% | 450 nM | 1.05 h | 0.62 µM·h | 0.47 µM |  |  |  |  | 
Cc1ccc(S(=O)(=O)c2cc(C)n(CC(=O)NCc3ccc(N)nc3C)c(=O)c2N)cc1 | 800 nM |  |  |  |  |  |  | 94 nM |  |  | 
Cc1nc(N)ccc1CNC(=O)Cn1c(C)cc(S(=O)(=O)CC2CC2)c(N)c1=O | 1900 nM | 70% |  |  |  | 0.4 µM | 550 nM | 1.8 nM | 0.8 µM·h | 370 nM | 1.1 h
Cc1nc(N)ccc1CNC(=O)Cn1c(C)cc(S(=O)(=O)C2CC2)c(N)c1=O | 2800 nM |  |  |  |  | 1.64 µM |  | 17 nM |  |  | 
Cc1nc(N)ccc1CNC(=O)Cn1c(C)cc(S(=O)(=O)CC2CCC2)c(N)c1=O | 550 nM | 45% |  |  |  | 0.23 µM | 680 nM | 0.2 nM | 2.58 µM·h | 570 nM | 0.783 h
Cc1nc(N)ccc1CNC(=O)Cn1c(C)cc(S(=O)(=O)c2ccccc2)c(N)c1=O | 500 nM | 19% |  |  |  | 0.66 µM | 570 nM | 3.8 nM |  |  | 

Continued, in another order:

Ki [1] | Free [5] | Cmax [6] | half-life [7] | AUC [8] | Structure (SMILES) | Concentration [2] | concentration [3] | Ki [4] | AUC [9] | Cmax [10] | half-life [11]
1600 nM |  |  |  |  | Cc1nc(N)ccc1CNC(=O)Cn1c(C)cc2c(c1=O)NCN(CC1CCC1)S2(=O)=O | 0.92 µM |  |  |  |  | 
260 nM | 38% |  |  |  | Cc1nc(N)ccc1CNC(=O)Cn1c(C)cc(S(=O)(=O)C2CCCCC2)c(N)c1=O | 0.75 µM | 650 nM | 3 nM |  |  | 
1000 nM | 53% |  |  |  | Cc1nc(N)ccc1CNC(=O)Cn1c(C)cc(S(=O)(=O)NCC2CC2)c(N)c1=O | 0.75 µM |  |  |  |  | 
6100 nM | 25% |  |  |  | Cc1nc(N)ccc1CNC(=O)Cn1c(C)cc2c(c1=O)NCN(CC1CC1)S2(=O)=O | 0.79 µM |  | 2.1 nM | 2.14 µM·h | 590 nM | 2.27 h
340 nM | 40% |  |  |  | Cc1nc(N)ccc1CNC(=O)Cn1c(C)cc(S(=O)(=O)c2cccs2)c(N)c1=O | 0.39 µM | 430 nM | 1.7 nM |  |  | 
10000 nM |  |  |  |  | Cc1nc(N)ccc1CNC(=O)Cn1c(C)cc2c(c1=O)NCN(C1CC1)S2(=O)=O | 0.75 µM |  |  |  |  | 
1100 nM | 45% |  |  |  | Cc1nc(N)ccc1CNC(=O)Cn1c(C)cc(S(=O)(=O)NC2CCC2)c(N)c1=O | 0.35 µM |  |  |  |  | 
6300 nM |  |  |  |  | Cc1nc(N)ccc1CNC(=O)Cn1c(C)cc2c(c1=O)NCN(C1CCC1)S2(=O)=O | 1.11 µM |  |  |  |  | 
740 nM | 23% |  |  |  | Cc1nc(N)ccc1CNC(=O)Cn1c(C)cc(S(=O)(=O)NCC2CCC2)c(N)c1=O | 0.47 µM | 640 nM | 0.75 nM |  |  | 
2900 nM |  |  |  |  | Cc1nc(N)ccc1CNC(=O)Cn1c(C)cc(S(=O)(=O)NC2CC2)c(N)c1=O | 0.85 µM |  |  |  |  | 
